# Measurements reported in patent US8003630B2, “Combinatorial therapies for the treatment of neoplasias using the opioid growth factor receptor” (The Penn State Research Foundation, priority 2004, dated 2011).
# Marks after values point to notes of the source that are not given here.
# Experiments:
# MIA PaCa-2 cells [1] = test: Growth assays of MIA PaCa-2 cells (MTS assay or cell counting), Example 7; format: cell-based, human; conditions: for inhibition of cell number relative to controls: opioids 10^−6 M daily; for decrease in cell number relative to controls: OGF 10^−6 M and/or gemcitabine 10^−8 M
# Experimental: (§1) MIA PaCa-2 and PANC-1 human pancreatic adenocarcinoma cell lines were purchased from the American Type Culture Collection (Manasass, Va.). MIA PaCa-2 cells were derived from an undifferentiated epithelial carcinoma occurring in the body and tail of the pancreas in a person. The PANC-1 cells were derived from an undifferentiated carcinoma from the head of the pancreas in a person. MIA PaCa-2 and PANC-1 cells were grown in Dulbecco's MEM (modified) media; media was supplemented with 10% fetal calf serum, 1.2% sodium bicarbonate, and antibiotics (5,000 Units/ml penicillin, 5 mg/ml streptomycin, 10 mg/ml neomycin), and the cells were maintained in a humidified atmosphere of 7% CO2/93% air at 37° C.
# MIA PaCa-2 cells were seeded at equivalent amounts into either 75 cm^2 flasks, 6-well plates, or 96-well plates (Falcon) and counted 24 hr later to determine plating efficiency. Growth assays for PANC-1 cells were conducted in 6-well plates (Falcon). Compounds or sterile water were added beginning 24 hr after seeding (=0 hr), and both media and compounds were replaced daily. All drugs were prepared in sterile water and dilutions represent final concentrations of the compounds.
# (§2) Cell number was recorded either by using a mitogenic bioassay, the MTS assay (Cell Titer 96 One Solution, Promega, Madison, Wis.), and measuring absorbency after 4 hr on a Biorad (Model 3550) plate reader at 490 nm, or by counting cells. For manual counts, cells were harvested with a solution of 0.25% trypsin/0.53 mM EDTA, centrif uiged, and counted with a hemacytometer. Cell viability was determined by trypan blue staining. At least two aliquots per flask or 4-10 wells/treatment were counted at each time.
# SCC-1 cells [2] = test: Cell proliferation assays of SCC-1 cells (MTS or cell counting), Example 8; format: cell-based, human; conditions: for decrease from control levels in absorbency readings: opioids 10^−6 M daily; for reduction of cell number from control levels: SCC-1, MTS, carboplatin 10^−7 M
# Experimental: The UM-SCC-1 cell line (SCC-1) was derived from a well-differentiated recurrent squamous cell carcinoma in the floor of the mouth of a person (25). This cell line was obtained from The University of Michigan, Cancer Research Laboratory (Thomas E. Carey, Ph.D., Director). CAL-27 human squamous cell carcinoma cell line, derived from a poorly differentiated carcinoma of the tongue in a person ([…]), was obtained from the American Type Culture Collection (Manassas, Va.). Both cell lines were grown in Dulbecco's MEM (modified) media supplemented with 10% fetal calf serum, 1.2% sodium bicarbonate, and antibiotics (5,000 Units/ml penicillin, 5 mg/ml streptomycin, 10 mg/ml neomycin). The cell cultures were maintained in a humidified atmosphere of 7% CO2/93% air at 37° C.
# Cells were seeded at equivalent amounts into either 6-well or 96-well plates (Falcon) and counted 24 hr later to determine plating efficiency.
# The dosage of carboplatin selected was based on previous reports (27, 28), as well as preliminary studies in our laboratory.
# Cell number was recorded either by using the MTS proliferation bioassay (Cell Titer 96 One Solution, Promega, Madison, Wis.) and measuring absorbency after 4 hr on a Biorad (Model 3550) plate reader at 490 nm with a 750 nm background absorbance screening, or by directly counting cells. The MTS assay utilized 10 wells/treatment. For manual counts, cells were harvested by trypsinization with 0.25% trypsin/0.53 mM EDTA, centrif uiged, and counted with a hemacytometer. Cell viability was determined by trypan blue staining. At least two aliquots per well, and 4-10 wells/treatment, were counted at each time for manual counting.
# For some experiments, the rate of growth over a 96-hr period of time was calculated using linear regression analyses. The slopes of the lines (number of cells/hr) were compared by analysis of variance. All calculations were performed with GraphPad Prism software.
# MiaPaCa-2 cells [3] = test: Gemcitabine and OGF cell cycle phase analysis by flow cytometry; format: cell-based, human
# Experimental: To investigate the exact cell cycle phase where gemcitabine and/or OGF exerted their effects, flow cytometry was performed.
# MiaPaCa-2 cells [4] = test: OGF/gemcitabine treatment in athymic nude mouse model (Example 5); format: in vivo, athymic nude mice; conditions: day 16 after tumor cell inoculation
# Description: To examine the effectiveness of the combined OGF/gemcitabine treatments in vivo, an athymic nude mouse model was used.
# MiaPaCa-2 cells [5] = test: Gemcitabine growth curve, actual cell counts; format: cell-based, human; conditions: MiaPaCa-2 cell counts
# PANC-1 cells = test: Growth assay of PANC-1 cells in 6-well plates; format: cell-based, human; conditions: 72 hr, OGF 10^−6 M and/or gemcitabine 10^−8 M
# Experimental: as §1
# MIA PaCa-2 cells were seeded at equivalent amounts into either 75 cm^2 flasks, 6-well plates, or 96-well plates (Falcon) and counted 24 hr later to determine plating efficiency. […]
# as §2
# MIA PaCa-2 cells [6] = test: MIA PaCa-2 xenograft in nude mice, tumor appearance, growth and termination day measurements (Example 7); format: in vivo, BALB/c-nu/nu nude mice
# Description: Male 4 week old BALB/c-nu/nu nude mice purchased from Harlan Laboratories (Indianapolis, Ind.) were housed in pathogen-free isolators in the Department of Comparative Medicine at the Penn State University College of Medicine. All procedures were approved by the IACUC committee of the Penn State University College of Medicine and conformed to the guidelines established by NIH. Mice were allowed 48 hr to acclimate prior to beginning experimentation.
# MIA PaCa-2 cells (10^6 cells/mouse) were inoculated into nude mice by subcutaneous injection into the right scapular region; mice were not anesthetized for this procedure.
# All drugs were dissolved in saline and prepared weekly. Injections were given within 1 hr of tumor cell inoculation.
# Mice were weighed weekly throughout the experiment, and observed daily for the presence of tumors. The latency for a visible tumor to appear, and the time until tumors were measurable (i.e., 62.5 mm^3) were recorded. Tumors were measured using calipers every day after tumor appearance. Tumor volume was calculated using the formula w^2×1×π/6, where the length is the longest dimension, and width is the dimension perpendicular to length.
# According to IACUC guidelines, mice were terminated when tumors became ulcerated, or tumors grew to 2 cm in diameter. Forty-five days following tumor cell inoculation, all mice were euthanized by an overdose of sodium pentobarbital (100 mg/kg) and killed by cervical dislocation; mice (with tumors) were weighed. Tumors and spleens were removed and weighed, and the lymph nodes, liver, and spleen examined for metastases.
# SCC-1 cells [7] = test: Growth curves of SCC-1 cells, cell proliferation (MTT) assay, absorbency
# Description: Cells were counted using a standard MTT assay. In general, each data point represents the average absorbency taken from 10 wells/treatment; error bars represent the S.E.M.
molecule,measurement,setting,value
endomorphin-1,inhibition of cell number relative to controls,"MIA PaCa-2 cells [1]; MIA PaCa-2, 96 hr",none of the other drugs utilized had any inhibitory or stimulatory effect on growth
same,decrease from control levels in absorbency readings,SCC-1 cells [2]; SCC-1,none of the drugs utilized had any inhibitory or stimulatory effect on growth
"dynorphin 1-13 (YGGFLRRIRPKLK; Dynorphin A(1-13); UniProt P01213 207-219, looked up, fragment)",decrease from control levels in absorbency readings,SCC-1 cells [2]; SCC-1,none of the drugs utilized had any inhibitory or stimulatory effect on growth
"CC(C)C[C@@H](NC(=O)[C@H](Cc1ccccc1)NC(=O)CNC(=O)[C@@H](C)NC(=O)[C@@H](N)Cc1ccc(O)cc1)C(=O)O [DADLE, [D-Ala-D-Leu-enkephalin]]",inhibition of cell number relative to controls,"MIA PaCa-2 cells [1]; MIA PaCa-2, 96 hr",none of the other drugs utilized had any inhibitory or stimulatory effect on growth
same,decrease from control levels in absorbency readings,SCC-1 cells [2]; SCC-1,none of the drugs utilized had any inhibitory or stimulatory effect on growth
"[D-Pen^2,5]-enkephalin [DPDPE]",inhibition of cell number relative to controls,"MIA PaCa-2 cells [1]; MIA PaCa-2, 96 hr",none of the other drugs utilized had any inhibitory or stimulatory effect on growth
same,decrease from control levels in absorbency readings,SCC-1 cells [2]; SCC-1,none of the drugs utilized had any inhibitory or stimulatory effect on growth
CN1CC[C@]23c4c5ccc(O)c4O[C@H]2[C@@H](O)C=C[C@H]3[C@H]1C5 [morphine],inhibition of cell number relative to controls,"MIA PaCa-2 cells [1]; MIA PaCa-2, 96 hr",none of the other drugs utilized had any inhibitory or stimulatory effect on growth
same,decrease from control levels in absorbency readings,SCC-1 cells [2]; SCC-1,none of the drugs utilized had any inhibitory or stimulatory effect on growth
Nc1ccn([C@@H]2O[C@H](CO)[C@@H](O)C2(F)F)c(=O)n1 [gemcitabine],cells in the G1 phase of the cell cycle,MiaPaCa-2 cells [3]; 48 hours of treatment,73.50%
same,cells in the G1 phase of the cell cycle,MiaPaCa-2 cells [3]; 120 hours of treatment,60.75%
same,mice with tumors,MiaPaCa-2 cells [4],75%
same,decrease in cell number relative to controls,"MiaPaCa-2 cells [5]; 24 h, gemcitabine 10^−7 M or OGF 10^−6 M alone",30.1%
same,decrease in cell number relative to controls,"MiaPaCa-2 cells [5]; 48 h, gemcitabine 10^−7 M or OGF 10^−6 M alone",46.4%
same,decrease in cell number relative to controls,"MiaPaCa-2 cells [5]; 48 h, gemcitabine 10^−8 M alone or with OGF 10^−6 M",21.7%
same,decrease in cell number relative to controls,"MiaPaCa-2 cells [5]; 72 h, gemcitabine 10^−7 M or OGF 10^−6 M alone",47.7%
same,decrease in cell number relative to controls,"MiaPaCa-2 cells [5]; 72 h, gemcitabine 10^−8 M alone or with OGF 10^−6 M",21.2%
same,decrease in cell number relative to controls,"MiaPaCa-2 cells [5]; 96 h, gemcitabine 10^−7 M or OGF 10^−6 M alone",64.2%
same,decrease in cell number relative to controls,"MiaPaCa-2 cells [5]; 96 h, gemcitabine 10^−8 M alone or with OGF 10^−6 M",32.4%
same,inhibition at 0.01 µM,"MIA PaCa-2 cells [1]; Homo sapiens, MIA PaCa-2, 96 h, read-out: inhibition of cell growth relative to control levels",13 to 36%
same,decrease in cell number relative to controls,"MIA PaCa-2 cells [1]; MIA PaCa-2, 48 hr",22%
same,decrease in cell number relative to controls,"MIA PaCa-2 cells [1]; MIA PaCa-2, 72 hr",21%
same,difference in cell number between reversal group and group continuing drug exposure,"MIA PaCa-2 cells [1]; MIA PaCa-2, 96 hr (48 hr after reversal)",did not differ
same,decrease in cell number relative to controls,"MIA PaCa-2 cells [1]; MIA PaCa-2, 96 hr",32%
same,fewer cells than in control cultures,PANC-1 cells,31%
same,day from which tumor volume differed from controls,MIA PaCa-2 cells [6]; at least p<0.05,14 days
same,mice with measurable tumors,MIA PaCa-2 cells [6]; day 10,75%
same,tumor volumes decreased from control values,MIA PaCa-2 cells [6]; day 45,56%
same,weight of the spleen decreased from control values,MIA PaCa-2 cells [6]; day 45,approximately 40%
same,Body Weight,"MIA PaCa-2 cells [6]; day 45, means ± SEM",27.4 ± 0.55 g
same,Spleen Weight,"MIA PaCa-2 cells [6]; day 45, means ± SEM",454 ± 49 mg
same,"Tumor Volume, mm^3","MIA PaCa-2 cells [6]; day 45, means ± SEM",3963 ± 123*** mm^3
same,Tumor Weight,"MIA PaCa-2 cells [6]; day 45, means ± SEM",2.4 ± 0.1 g
same,Latency to measurable tumor,MIA PaCa-2 cells [6]; means ± SEM,13.1 ± 1.0 days
same,Latency to visible tumor,MIA PaCa-2 cells [6]; means ± SEM,11.1 ± 1.1 days
same,"Tumor Incidence, day 16",MIA PaCa-2 cells [6]; mice with tumor/N,11/12
same,"Tumor Incidence, day 10","MIA PaCa-2 cells [6]; mice with tumor/N, OGF 10 mg/kg daily and/or gemcitabine 120 mg/kg every 3 days i.p.",9/12
same,weights of tumors decreased from control levels,MIA PaCa-2 cells [6]; termination day (day 45),56%
"β-endorphin (YGGFMTSEKSQTPLVTLFKNAIIKNAYKKGE; Beta-endorphin; UniProt P01189 237-267, looked up)",inhibition of cell number relative to controls,"MIA PaCa-2 cells [1]; MIA PaCa-2, 96 hr",none of the other drugs utilized had any inhibitory or stimulatory effect on growth
same,decrease from control levels in absorbency readings,SCC-1 cells [2]; SCC-1,none of the drugs utilized had any inhibitory or stimulatory effect on growth
"dynorphin A1-8 (YGGFLRRI; Dynorphin A(1-8); UniProt P01213 207-214, looked up, fragment)",inhibition of cell number relative to controls,"MIA PaCa-2 cells [1]; MIA PaCa-2, 96 hr",none of the other drugs utilized had any inhibitory or stimulatory effect on growth
endomorphin-2,inhibition of cell number relative to controls,"MIA PaCa-2 cells [1]; MIA PaCa-2, 96 hr",none of the other drugs utilized had any inhibitory or stimulatory effect on growth
same,decrease from control levels in absorbency readings,SCC-1 cells [2]; SCC-1,none of the drugs utilized had any inhibitory or stimulatory effect on growth
N.N.O=C([O-])C1(C(=O)[O-])CCC1.[Pt+2] [carboplatin],reduction of cell number from control levels,SCC-1 cells [2]; 72 hr,19%
same,reduction of cell number from control levels,SCC-1 cells [2]; 96 hr,21%
same,decrease in cell number relative to controls,"SCC-1 cells [7]; 48 h, carboplatin 10^−6 M and/or OGF 10^−6 M",5.3%
same,decrease in cell number relative to controls,"SCC-1 cells [7]; 72 h, carboplatin 10^−6 M and/or OGF 10^−6 M",21.8%
same,decrease in cell number relative to controls,"SCC-1 cells [7]; 72 h, carboplatin 10^−7 M alone or with OGF 10^−6 M",18.7%
same,decrease in cell number relative to controls,"SCC-1 cells [7]; 96 h, carboplatin 10^−6 M and/or OGF 10^−6 M",24.9%
same,decrease in cell number relative to controls,"SCC-1 cells [7]; 96 h, carboplatin 10^−7 M alone or with OGF 10^−6 M",21%
C=CCN1CC[C@]23c4c5ccc(O)c4O[C@H]2C(=O)CC[C@@]3(O)[C@H]1C5 [naloxone],effect of naloxone on growth and growth inhibition,"MIA PaCa-2 cells [1]; MIA PaCa-2, 96 hr, naloxone 10^−6 M",had no effect on the growth of MIA PaCa-2 cells
same,effect of naloxone on growth and growth inhibition,"SCC-1 cells [2]; SCC-1, naloxone 10^−6 M",had no effect on growth
"C[C@@H](NC(=O)[C@@H](N)Cc1ccc(O)cc1)C(=O)NCC(=O)N(C)[C@@H](Cc1ccccc1)C(=O)NCCO [DAMGO, [D-Ala^2, MePhe^4, Glyol^5]-enkephalin]",inhibition of cell number relative to controls,"MIA PaCa-2 cells [1]; MIA PaCa-2, 96 hr",none of the other drugs utilized had any inhibitory or stimulatory effect on growth
same,decrease from control levels in absorbency readings,SCC-1 cells [2]; SCC-1,none of the drugs utilized had any inhibitory or stimulatory effect on growth
